Measured values from the supplement of paper PMC10307832.

Tests used:
Assay in all cases: relative viability (nuclei count vs DMSO), 5 days (fraction); higher = more cells survive
201T = system: 201T
How it was run: (§1)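 Lung cancer cell lines in 1536-well plates were dosed by pin tool the day after seeding, either with one drug alone or with a fixed anchor-drug dose plus five library-drug doses (not always all listed) in √10 steps. After 5 days, cells were fixed and their nuclei stained in one step (final 0.05% Triton X-100, 1% formaldehyde, 1 ug/ml Hoechst), then counted on 4× images. Relative viability is the nuclei count in treated wells divided by that in vehicle wells. Values are medians of duplicate plates.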

NCI-H23 = system: NCI-H23
How it was run: as §1

NCI-H647 = system: NCI-H647
How it was run: as §1

NCI-H1651 = system: NCI-H1651
How it was run: as §1

LCLC-103H = system: LCLC-103H
How it was run: as §1

LK-2 = system: LK-2
How it was run: as §1

RERF-LC-KJ = system: RERF-LC-KJ
How it was run: as §1

HARA = system: HARA
How it was run: as §1

NCI-H2347 = system: NCI-H2347
How it was run: as §1

PC-3 [JPC-3] = system: PC-3 [JPC-3]
How it was run: as §1

NCI-H2405 = system: NCI-H2405
How it was run: as §1

NCI-H838 = system: NCI-H838
How it was run: as §1

LCLC-97TM1 = system: LCLC-97TM1
How it was run: as §1

HCC-78 = system: HCC-78
How it was run: as §1

A-427 = system: A-427
How it was run: as §1

NCI-H1793 = system: NCI-H1793
How it was run: as §1

NCI-H522 = system: NCI-H522
How it was run: as §1

LXF-289 = system: LXF-289
How it was run: as §1

LOU-NH91 = system: LOU-NH91
How it was run: as §1

Cc1cn(-c2cc(NC(=O)c3ccc(C)c(Nc4nccc(-c5cccnc5)n4)c3)cc(C(F)(F)F)c2)cn1 [Nilotinib] + NC(=O)Nc1cc(-c2cccc(F)c2)sc1C(=O)N[C@H]1CCCNC1 [AZD7762] (partner 0.2 µM)
relative viability (201T; first compound 0.001 µM): 0.568
relative viability (201T; first compound 0.003162 µM): 0.546
relative viability (201T; first compound 0.01 µM): 0.563
relative viability (201T; first compound 0.03162 µM): 0.424
relative viability (201T; first compound 0.1 µM): 0.317
relative viability (NCI-H23; first compound 0.001 µM): 0.186
relative viability (NCI-H23; first compound 0.003162 µM): 0.221
relative viability (NCI-H23; first compound 0.01 µM): 0.154
relative viability (NCI-H23; first compound 0.03162 µM): 0.152
relative viability (NCI-H23; first compound 0.1 µM): 0.122
relative viability (NCI-H647; first compound 0.001 µM): 0.477
relative viability (NCI-H647; first compound 0.003162 µM): 0.41
relative viability (NCI-H647; first compound 0.01 µM): 0.359
relative viability (NCI-H647; first compound 0.03162 µM): 0.285
relative viability (NCI-H647; first compound 0.1 µM): 0.341
relative viability (NCI-H1651; first compound 0.001 µM): 0.444
relative viability (NCI-H1651; first compound 0.003162 µM): 0.394
relative viability (NCI-H1651; first compound 0.01 µM): 0.572
relative viability (NCI-H1651; first compound 0.03162 µM): 0.401
relative viability (NCI-H1651; first compound 0.1 µM): 0.239
relative viability (LCLC-103H; first compound 0.001 µM): 0.861
relative viability (LCLC-103H; first compound 0.003162 µM): 0.883
relative viability (LCLC-103H; first compound 0.01 µM): 0.845
relative viability (LCLC-103H; first compound 0.03162 µM): 0.705
relative viability (LCLC-103H; first compound 0.1 µM): 0.477
relative viability (LK-2; first compound 0.001 µM): 0.349
relative viability (LK-2; first compound 0.003162 µM): 0.447
relative viability (LK-2; first compound 0.01 µM): 0.47
relative viability (LK-2; first compound 0.03162 µM): 0.382
relative viability (LK-2; first compound 0.1 µM): 0.514
relative viability (RERF-LC-KJ; first compound 0.001 µM): 0.834
relative viability (RERF-LC-KJ; first compound 0.003162 µM): 1.02
relative viability (RERF-LC-KJ; first compound 0.01 µM): 1.16
relative viability (RERF-LC-KJ; first compound 0.03162 µM): 0.598
relative viability (RERF-LC-KJ; first compound 0.1 µM): 0.427
relative viability (HARA; first compound 0.001 µM): 0.329
relative viability (HARA; first compound 0.003162 µM): 0.208
relative viability (HARA; first compound 0.01 µM): 0.536
relative viability (HARA; first compound 0.03162 µM): 0.197
relative viability (HARA; first compound 0.1 µM): 0.245
relative viability (NCI-H2347; first compound 0.001 µM): 0.691
relative viability (NCI-H2347; first compound 0.003162 µM): 0.597
relative viability (NCI-H2347; first compound 0.01 µM): 0.748
relative viability (NCI-H2347; first compound 0.03162 µM): 0.567
relative viability (NCI-H2347; first compound 0.1 µM): 0.596
relative viability (PC-3 [JPC-3]; first compound 0.001 µM): 0.8
relative viability (PC-3 [JPC-3]; first compound 0.01 µM): 0.737
relative viability (PC-3 [JPC-3]; first compound 0.03162 µM): 0.749
relative viability (PC-3 [JPC-3]; first compound 0.1 µM): 0.527
relative viability (NCI-H2405; first compound 0.001 µM): 0.684
relative viability (NCI-H2405; first compound 0.003162 µM): 0.628
relative viability (NCI-H2405; first compound 0.01 µM): 0.665
relative viability (NCI-H2405; first compound 0.03162 µM): 0.557
relative viability (NCI-H2405; first compound 0.1 µM): 0.399
relative viability (NCI-H838; first compound 0.001 µM): 0.86
relative viability (NCI-H838; first compound 0.003162 µM): 1.01
relative viability (NCI-H838; first compound 0.03162 µM): 0.9
relative viability (NCI-H838; first compound 0.1 µM): 0.995
relative viability (LCLC-97TM1; first compound 0.003162 µM): 0.366
relative viability (LCLC-97TM1; first compound 0.1 µM): 0.0966
relative viability (HCC-78; first compound 0.001 µM): 0.668
relative viability (HCC-78; first compound 0.003162 µM): 0.442
relative viability (HCC-78; first compound 0.01 µM): 0.725
relative viability (HCC-78; first compound 0.03162 µM): 0.58
relative viability (HCC-78; first compound 0.1 µM): 0.628
relative viability (A-427; first compound 0.001 µM): 0.716
relative viability (A-427; first compound 0.003162 µM): 0.501
relative viability (A-427; first compound 0.01 µM): 0.681
relative viability (A-427; first compound 0.03162 µM): 0.535
relative viability (A-427; first compound 0.1 µM): 0.338
relative viability (NCI-H1793; first compound 0.001 µM): 0.388
relative viability (NCI-H1793; first compound 0.003162 µM): 0.318
relative viability (NCI-H1793; first compound 0.01 µM): 0.303
relative viability (NCI-H1793; first compound 0.03162 µM): 0.243
relative viability (NCI-H1793; first compound 0.1 µM): 0.146
relative viability (NCI-H522; first compound 0.01 µM): 0.861
relative viability (NCI-H522; first compound 0.03162 µM): 0.767
relative viability (NCI-H522; first compound 0.1 µM): 0.649
relative viability (LXF-289; first compound 0.001 µM): 1.03
relative viability (LXF-289; first compound 0.003162 µM): 1.2
relative viability (LXF-289; first compound 0.01 µM): 1.21
relative viability (LXF-289; first compound 0.03162 µM): 1.08
relative viability (LXF-289; first compound 0.1 µM): 0.642
relative viability (LOU-NH91; first compound 0.001 µM): 0.748
relative viability (LOU-NH91; first compound 0.003162 µM): 0.742
relative viability (LOU-NH91; first compound 0.01 µM): 0.772
relative viability (LOU-NH91; first compound 0.03162 µM): 0.65
relative viability (LOU-NH91; first compound 0.1 µM): 0.684
